Molecular target: Rv1466 (Mycobacterium tuberculosis, UniProt O53157)
Experiment: […]; bound species is […] Da (half of the disulfide dimer)
Format: binding

Chain of Rv1466 (O53157 1-115 limits assumed): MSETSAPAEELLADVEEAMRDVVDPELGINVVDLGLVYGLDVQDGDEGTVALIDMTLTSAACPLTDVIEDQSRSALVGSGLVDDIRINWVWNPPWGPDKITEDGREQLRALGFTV

## COc1ccc(-c2nc(N)n(C)c2SSc2c(-c3ccc(OC)cc3)nc(N)n2C)cc1 [polycarpine]
  Kd: 5.3 ± 0.4 µM

Source: PMC7143284, “A Phenotarget Approach for Identifying an Alkaloid Interacting with the Tuberculosis Protein Rv1466” (Marine Drugs, 2020)
